# Columns and labels:
# [1] = tested on: VMAT2; details: cited from earlier work
# [2] = cited from earlier work
# [3] = Plasma protein binding by ultrafiltration; format: in vitro ADME; details: cynomolgus, cynomolgus monkey, pH 7.4, NHP plasma, baseline, read-out: plasma free fraction (fP)
# Description: Plasma protein binding of all three radioligands was measured in duplicate in baseline conditions. NHP blood plasma (500 μL) and a PBS solution (pH 7.4, KCl 0.2 mg, KH2PO4 0.2 mg, Na2HPO4 1.42 mg, NaCl 8 mg in 1 mL) were mixed with the respective radioligand (50 μL, approx. 20 MBq in PBS). The plasma mixture was incubated for 10 min at room temperature and a small portion (20 μL) from each incubation mixture was measured in a well counter. A portion (200 μL) from all individual incubation mixtures was pipetted out into ultrafiltration tubes (Millipore Centrifree YM-30) and centrifuged at 3000 rpm for 15 min. Samples (20 μL) from each filtrate were counted in a well counter. The following formula was used to calculate the protein-bound fraction. [drawing 1] where Cpla (total) is the radioactivity concentration of the incubation mixture in plasma, CPBS (total) is the radioactivity concentration of the incubation mixture in PBS, and Cpla (filtrate) and […] the radioactivity concentrations from filtrate samples.
# [4] = tested on: VMAT2; details: rats; cited from earlier work
# [5] = PET whole brain uptake and kinetics in cynomolgus monkeys (HRRT); details: whole brain peak, baseline PET
# Description: Anesthesia was induced by intramuscular injection of ketamine hydrochloride (approximately 10 mg/kg, Ketaminol vet. Intervet) and maintained by the administration of a mixture of sevoflurane, oxygen, and medical air after endotracheal intubation. The head was immobilized using a fixation device.[32]
# Three female cynomolgus monkeys (NHP1, NHP2, and NHP3) (weight of 5.8–6.95 kg) were studied in 10 different experimental days for a total of 12 PET experiments. All PET experiments were performed using a high-resolution research tomograph (HRRT) PET scanner (Siemens Molecular Imaging, Knoxville, TN). A 6 min transmission scan was performed every time before the injection of the radioligands using a single ^137Cs source. […]
# All three monkeys underwent two PET measurements on the same day at once. […] Venous blood sampling was performed manually for the measurement of protein binding, blood, and plasma radioactivity and radiometabolite analysis. […]
# The regions of interest (ROIs) were delineated manually on the MRI images of each NHP for putamen, caudate, midbrain, occipital cortex, and cerebellum. […] Quantification was performed using the Logan graphical analysis, and the cerebellum was used as a reference region. […]
# [6] = tested on: VMAT2; test: PET quantification of VMAT2 binding (BPND, Logan noninvasive analysis, cerebellum reference); format: in vivo, cynomolgus monkey; details: for Binding potential (BPND) caudate / Binding potential (BPND) midbrain / Binding potential (BPND) putamen: Logan noninvasive analysis, cerebellum as reference region; for peak equilibrium: cynomolgus monkey brain, baseline PET
# Text: The outcome measure was the binding potential (BPND).
# [7] = Radiometabolite analysis in monkey plasma by gradient radio-HPLC; format: in vivo, cynomolgus monkey; details: 90 min after injection
# Description: Radiometabolite analysis was performed following a method reported elsewhere.[34] Venous blood samples (2 mL) were obtained from the monkey at different time points such as 2.5, 15, 30, 45, 60, 90, 120, 150, and 180 min after injection of [^18F]FE-DTBZ/[^18F]FE-DTBZ-d4. For [^11C]-DTBZ, venous blood samples (2 mL) were obtained at time points 2.5, 15, 30, 45, 60, and 90 min after injection. Collected blood was centrifuged at 2000g for 2 min to obtain the plasma (0.5 mL). The plasma was mixed with 1.4 times volume of acetonitrile followed by centrifugation at 2000g for 4 min. The extract was separated from the pellet and was diluted with water before injecting into the HPLC equipped with a reverse-phase μ-Bondapak HPLC column, (300 mm × 10 mm I.D). […] Peaks for radioactive compounds eluting from the column were integrated and their areas were expressed as a percentage of the sum of the areas of all detected radioactive compounds (decay-corrected to the time of injection on the HPLC). To calculate the recovery of radioactivity from the system, an aliquot (2 mL) of the eluate from the HPLC column was measured and divided by the amount of the total injected radioanalyte.
# [8] = tested on: VMAT2; test: Pretreatment and displacement PET with tetrabenazine using [^18F]FE-DTBZ-d4; format: in vivo, cynomolgus monkey; details: tetrabenazine 2 mg/kg
# Description: In NHP1, one PET measurement was performed after pretreatment with tetrabenazine (2 mg/kg), which was administered 15 min prior to the administration of [^18F]FE-DTBZ-d4. In NHP2, two displacement experiments were performed with the administration of tetrabenazine (2 mg/kg) 25 min after the injection of [^18F]FE-DTBZ-d4.
# The regions of interest (ROIs) were delineated manually on the MRI images of each NHP for putamen, caudate, midbrain, occipital cortex, and cerebellum. The MRI of all of the individual NHPs was coregistered to summed PET images of the whole PET measurement. The time–activity curves of NHP brain regions were generated from dynamic PET data with the application of the coregistration parameters to ROIs. Quantification was performed using the Logan graphical analysis, and the cerebellum was used as a reference region. The outcome measure was the binding potential (BPND).
SMILES,better binding affinity over the (−)-enantiomer [1] [fold],in vivo metabolism ([2]; large piglet model),"fraction unbound at 10 min, 36 MBq/mL [3]",striatum-to-cerebellum ratio [4],brain uptake (SUV) [5],Binding potential (BPND) caudate [6],peak equilibrium [6] [min],Binding potential (BPND) midbrain [6],Binding potential (BPND) putamen [6],percent of unchanged radioligand in plasma [7] [%],"bone uptake ([2]; PET/CT in pigs, compared with [^18F]FE-(+)-DTBZ)","uptake of [^18F]FE-DTBZ-d4 in caudate, putamen, and midbrain after pretreatment ([8]; 15 min prior to radioligand injection)","uptake of [^18F]FE-DTBZ-d4 in caudate, putamen, and midbrain in displacement experiment ([8]; 25 min after radioligand injection)"
"COc1cc2c(cc1OC)[C@H]1C[C@@H](O)[C@H](CC(C)C)CN1CC2 (single isomer, unassigned) [(+)-enantiomer, dihydrotetrabenazine]",1000,–,–,–,–,–,–,–,–,–,–,–,–
"COc1cc2c(cc1OCC[18F])CCN1C[C@@H](CC(C)C)[C@H](O)C[C@H]21 [[^18F]FE-DTBZ, ^18F-fluoroethyl-(+)-dihydrotetrabenazine]",–,metabolized extensively by in vivo defluorination,0.56,relatively poor,3.43 ± 0.54,3.8 ± 0.5,> 60,1.1 ± 0.1,4.7 ± 0.3,10 ± 4,–,–,–
[2H]C([2H])([18F])C([2H])([2H])Oc1cc2c(cc1OC)[C@H]1C[C@@H](O)[C@H](CC(C)C)CN1CC2 [[^18F]FE-DTBZ-d4],–,–,0.52 ± 0.01,–,4.28 ± 1.01,4.4 ± 1.1,40,1.4 ± 0.4,5.5 ± 1.4,30 ± 17,lower bone uptake,–,–
COc1cc2c(cc1OC)C1CC(=O)C(CC(C)C)CN1CC2 (centres unmarked) [tetrabenazine],–,–,–,–,–,–,–,–,–,–,–,decreased almost to the level of the cerebellum and occipital cortex,clear reduction

# Reference: publication PMC8678981, “PET Imaging of VMAT2 with the Novel Radioligand [^18F]FE-DTBZ-d4 in Nonhuman Primates: Comparison with [^11C]DTBZ and [^18F]FE-DTBZ” (ACS Chemical Neuroscience, 2021)
